In one series the test system is Artemia salina. Description: Toxicity in Artemia salina. The class given is organism-based. The conditions noted are these: in vivo.
The next series concerns Gambusia affinis. Briefly: Toxicity in Gambusia affinis. The class given is organism-based. The conditions noted are these: in vivo.
In a further series the test system is Micrococcus luteus. Description: Antibacterial activity against Micrococcus luteus DSM 348 at 100 ug/disk by diffusion test. The class given is functional, organism-based.
The next series has as its system Bacillus subtilis. Briefly: Antibacterial activity against Bacillus subtilis DSM 347 at 100 ug/disk by diffusion test. In kind it is functional, organism-based.
The subject of a further series is Candida albicans. Description: Antifungal activity against Candida albicans DSM 1665 at 100 ug/disk by diffusion test. In kind it is functional, organism-based.
In the next series the test system is Escherichia coli. Description: Antibacterial activity against Escherichia coli DSM 1103 at 100 ug/disk by diffusion test. In kind it is functional, organism-based.
The next series relates to Pseudomonas aeruginosa. Description: Antibacterial activity against Pseudomonas aeruginosa DSM 1117 at 100 ug/disk by diffusion test. In kind it is functional, organism-based.

Calls of active or inactive are those of the source. The calls are words filed in the database; no cut-off is given here.

As for `CC(C)=CCC/C(C)=C/CC/C(C)=C/CC/C(C)=C/CC/C(C)=C/CC/C(C)=C/CC/C(C)=C/Cc1cc(O)ccc1O`, the LC50 (as a rule, the concentration that kills 50% of the test population) is reported as 0.91 ppm in the series on Artemia salina and more than 100 ppm with Gambusia affinis.

On to `CC(C)=CCC/C(C)=C/CC/C(C)=C/CC/C(C)=C/CC/C(C)=C/CC/C(C)=C/CCC1(C)C=Cc2cc(O)ccc2O1` (stereo not drawn), for which the values for the LC50 in the series on Artemia salina and in the series with Gambusia affinis were 1.15 ppm and more than 100 ppm, respectively. In addition, the outcome in the series on Micrococcus luteus, in the series on Bacillus subtilis, in the series on Candida albicans, in the series on Escherichia coli and in the series with Pseudomonas aeruginosa was inactive.

As for `CC(C)=CCC/C(C)=C/CC/C(C)=C/CC/C(C)=C/CC/C(C)=C/CC/C(C)=C/CC/C(C)=C/Cc1cc(OS(=O)(=O)[O-])ccc1O.[Na+]`, the LC50 amounted to 0.02 ppm in the series with Artemia salina and 15.6 ppm with Gambusia affinis. In addition, the outcome in the series on Micrococcus luteus, with Bacillus subtilis, in the series on Candida albicans, in the series on Escherichia coli and in the series on Pseudomonas aeruginosa was inactive.

As to `CC(C)=CCC/C(C)=C/CC/C(C)=C/CC/C(C)=C/CC/C(C)=C/CC/C(C)=C/CC/C(C)=C/CC/C(C)=C/Cc1cc(OS(=O)(=O)[O-])ccc1O.[Na+]`, the LC50 came out at 0.04 ppm in the series with Artemia salina and 16.9 ppm in the series on Gambusia affinis. In addition, the result with Micrococcus luteus, in the series with Bacillus subtilis, in the series on Candida albicans, with Escherichia coli and in the series on Pseudomonas aeruginosa was inactive.

Consider `CC(C)=CCC/C(C)=C/CC/C(C)=C/CC/C(=C/CC/C(C)=C/CC/C(C)=C/CC/C(C)=C/CC/C(C)=C/Cc1cc(O)ccc1O)CO`, for which the LC50 with Artemia salina is 0.35 ppm; with Gambusia affinis, more than 100 ppm. Further, the outcome in the series with Micrococcus luteus, in the series with Bacillus subtilis, in the series on Candida albicans, in the series with Escherichia coli and with Pseudomonas aeruginosa was inactive.

`CC(C)=CCC/C(C)=C/CC/C(C)=C/CC/C(=C/CC/C(C)=C/CC/C(C)=C/CC/C(C)=C/CCC1(C)C=Cc2cc(O)ccc2O1)CO` (stereo not drawn): the LC50 with Artemia salina is given as 32.3 ppm; in the series with Gambusia affinis it was more than 100 ppm. Moreover, the result with Micrococcus luteus, with Bacillus subtilis, in the series on Candida albicans, in the series with Escherichia coli and in the series with Pseudomonas aeruginosa was inactive.

As to `CC(C)=CCC/C(C)=C/CC/C(C)=C/CC/C(C)=C/CC/C(C)=C/CC/C(C)=C/CC/C(C)=C/CC/C(C)=C/Cc1cc(O)ccc1O`, the 50% lethal concentration (LC50) in the series on Artemia salina was 0.98 ppm; with Gambusia affinis, more than 100 ppm.

Take `CC(C)=CCC/C(C)=C/CC/C(C)=C/CC/C(=C/CC/C(C)=C/CC/C(C)=C/CC/C(C)=C/CC/C(C)=C/Cc1cc(OS(=O)(=O)[O-])ccc1O)CO.[Na+]`: the LC50 in the series on Artemia salina was 0.05 ppm; in the series on Gambusia affinis it was 19.6 ppm. The result in the series with Micrococcus luteus, with Bacillus subtilis, in the series on Candida albicans, in the series on Escherichia coli and in the series on Pseudomonas aeruginosa was inactive.

For the compound `CC(C)=CCC/C(C)=C/CC/C(C)=C/CC/C(C)=C/CC/C(C)=C/CC/C(C)=C/CC/C(C)=C/CCC1(C)C=Cc2cc(O)ccc2O1` (stereo not drawn), the LC50 is 1.45 ppm in the series on Artemia salina and more than 100 ppm in the series with Gambusia affinis. Further, the result in the series with Micrococcus luteus, with Bacillus subtilis, with Candida albicans, in the series with Escherichia coli and with Pseudomonas aeruginosa was inactive.

The values are drawn from ChEMBL document CHEMBL1159295, “Sulfated Polyprenylhydroquinones from the Sponge Ircinia spinosula” (J Nat Prod, 1995).
